The values that follow come from patent publication US20240109885A1, “2,3-DIHYDRO-1H-PYRROLO[3,2-B]PYRIDINE DERIVATIVE, PREPARATION METHOD THEREFOR, AND APPLICATION THEREOF” (Abbisko Therapeutics Co., Ltd, priority 2020, published 2024).

Ba/F3 EGFR-D770-N771ins_SVD, sequence (P00533 with tags, fused parts or gaps DUP768-770): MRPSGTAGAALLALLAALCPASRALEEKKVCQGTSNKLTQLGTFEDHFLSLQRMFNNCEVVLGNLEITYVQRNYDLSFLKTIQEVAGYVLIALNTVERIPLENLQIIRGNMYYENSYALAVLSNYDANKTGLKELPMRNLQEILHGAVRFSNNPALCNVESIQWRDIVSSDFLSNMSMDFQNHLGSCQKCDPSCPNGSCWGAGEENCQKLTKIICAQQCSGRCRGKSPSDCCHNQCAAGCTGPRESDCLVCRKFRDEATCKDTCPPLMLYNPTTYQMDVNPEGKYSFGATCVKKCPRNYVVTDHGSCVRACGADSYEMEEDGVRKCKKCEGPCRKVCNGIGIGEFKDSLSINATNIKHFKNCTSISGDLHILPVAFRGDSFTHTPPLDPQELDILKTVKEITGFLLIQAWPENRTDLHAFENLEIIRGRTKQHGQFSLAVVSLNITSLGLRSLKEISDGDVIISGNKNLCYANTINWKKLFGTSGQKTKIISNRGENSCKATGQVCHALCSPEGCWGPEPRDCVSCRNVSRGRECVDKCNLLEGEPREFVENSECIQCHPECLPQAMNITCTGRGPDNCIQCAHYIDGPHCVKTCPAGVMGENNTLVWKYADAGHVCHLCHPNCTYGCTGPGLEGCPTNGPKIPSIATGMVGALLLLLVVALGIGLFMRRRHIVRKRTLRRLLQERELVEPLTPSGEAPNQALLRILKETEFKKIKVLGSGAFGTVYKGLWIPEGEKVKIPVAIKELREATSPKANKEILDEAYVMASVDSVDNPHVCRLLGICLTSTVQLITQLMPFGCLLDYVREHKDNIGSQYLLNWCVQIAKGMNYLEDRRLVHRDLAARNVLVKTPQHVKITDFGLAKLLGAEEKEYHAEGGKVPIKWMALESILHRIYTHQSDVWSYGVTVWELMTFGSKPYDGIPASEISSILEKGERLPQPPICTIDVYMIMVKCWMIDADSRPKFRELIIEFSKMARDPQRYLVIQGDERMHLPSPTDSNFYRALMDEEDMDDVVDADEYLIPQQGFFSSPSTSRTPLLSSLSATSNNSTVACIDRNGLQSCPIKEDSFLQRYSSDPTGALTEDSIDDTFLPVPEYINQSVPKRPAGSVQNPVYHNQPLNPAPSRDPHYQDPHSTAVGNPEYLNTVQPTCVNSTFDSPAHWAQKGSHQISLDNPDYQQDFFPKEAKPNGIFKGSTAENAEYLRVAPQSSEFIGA

The experiment has as its target Ba/F3 EGFR-D770-N771ins_SVD (Homo sapiens, UniProt P00533, DUP768-770, cells depend on it). Put plainly: Cell proliferation assay (CellTiter-Glo), Ba/F3 EGFR-D770-N771ins_SVD cells. It is filed as cell-based. As to conditions: 72 hrs, CTG assay, * = average of multiple measurements, read-out: Ba/F3 EGFR-D770-N771ins_SVD (nM), IC50 of cell proliferation. As for the experimental part:
I. Cell proliferation assay (i) Reagents and consumables • Fetal bovine serum (FBS) (GBICO, Cat #10099-141); • CellTiter-Glo® Luminescent Cell Viability Assay Kit (Promega, Cat #G7572); • Black transparent flat-bottomed 96-well plate (Corning®, Cat #3603).
• SpectraMax Multi-Label Microplate Detector MD, 2104-0010A; • CO2 incubator, Thermo Scientific 3100 Series; • Biosafety cabinet, Thermo Scientific, 1300 Series type A2; • Inverted microscope, Olympus, CKX41SF; • Siemens refrigerator KK25E76TI. (iii) Cell lines and culture conditions
(iv) Experimental procedures 1. Cell culture and seeding: • (1) Cells in the logarithmic growth phase were harvested, and counted using a platelet counter. Cell viability was detected by the trypan blue exclusion assay to ensure that the cell viability was above 90%. • (2) The cell concentration was adjusted to achieve the final density; and 90 μL of the cell suspension was added to the 96-well plate. • (3) The cells were incubated in the 96-well plate overnight at 37° C. in the presence of 5% CO2 with 95% humidity. 2. TO benchmark data: • (1) 10 μL of PBS was added to each well of the TO flat plate containing the cells. • (2) The CTG reagent was thawed, and the cell plate was equilibrated to room temperature for 30 min. • (3) An equal volume of CTG solution was added to each well. • (4) The cells were shaken for 5 min on an orbital shaker for lysis. • (5) The cell plate was left at room temperature for 20 min to stabilize luminescent signals. • (6) The values of TO luminescent signals were read. 3. Compound dilution and addition • (1) According to the compound information table, a corresponding volume of DMSO was added to the corresponding compound powder to prepare a 10 mM stock solution. • (2) Compound solutions diluted at 1000 fold and 3.16 fold were prepared. • (3) The compound solution diluted at 1000 fold was diluted at 100 fold with PBS, to prepare the compound solutions at 10 fold in 9 concentrations, with the maximum concentration of […]; and the compound solution was diluted at 3.16 fold. 10 μL of medicament solution was added to each well of the seeded 96-well plate. Three replicate wells were provided for each concentration of the compound, and the final concentration of DMSO was 0.1%. • (4) Cells were placed in the 96-well plate containing the medicament and subsequently cultured for 72 hrs at 37° C. in the presence of 5% CO2 with 95% humidity, and then, CTG assay was conducted. 4. Reading of luminescent signals • (1) The CTG reagent was thawed, and the cell plate was equilibrated to room temperature for 30 min. • (2) An equal volume of CTG solution was added to each well. • (3) The cells were shaken for 5 min on an orbital shaker for lysis.
(4) The cell plate was left at room temperature for 20 min to stabilize the luminescent signals. • (5) Luminescent values were read. Data processing
The data were analyzed using software GraphPad Prism 7.0, and fitted by the nonlinear S-curve regression to obtain a dose-effect curve, based on which the IC50 value (unit: nM) was calculated, with the specific test results shown in Table 1.
Cell viability (%)=(Lum test medicament-Lum culture medium control)/(Lum cell control-Lum culture medium control)×100%.
For the molecule `C=CC(=O)Nc1cc(Nc2cc(N3CC(C)(C)c4nc(-c5cnn(C)c5)ccc43)ccn2)c(OC)cc1N(C)CCN(C)C` [Example 67, N-(5-((4-(3,3-dimethyl-5-(1-methyl-1H-pyrazol-4-yl)-2,3-dihydro-1H-pyrrolo[3,2-b]pyridin-1-yl)pyridin-2-yl)amino)-2-((2-(dimethyl-amino)ethyl)(methyl)amino)-4-methoxyphenyl)acrylamide], the GI50 came out at 108 nM.
Turning to `C=CC(=O)Nc1cc(Nc2ncnc(N3CC(C)(C)c4nc(Br)ccc43)n2)c(OC)cc1N(C)CCN(C)C` [Example 41, N-(5-((4-(5-bromo-3,3-dimethyl-2,3-dihydro-1H-pyrrolo[3,2-b]pyridin-1-yl)-1,3,5-triazin-2-yl)amino)-2-((2-(dimethylamino)ethyl) (methyl)amino)-4-methoxyphenyl) acrylamide], the GI50 is 35.5 nM.
On to `C=CC(=O)Nc1cc(Nc2cc(N3CC(C)(C)c4nc(C5CC5)ccc43)ncn2)c(OC)nc1N(C)CCN(C)C` [Example 70, N-(5-((6-(5-cyclopropyl-3,3-dimethyl-2,3-dihydro-1H-pyrrolo[3,2-b]pyridin-1-yl)pyrimidin-4-yl)amino)-2-((2-(dimethylamino)ethyl) (methyl)amino)-6-methoxypyridin-3-yl)acrylamide], for which the GI50 was 121 nM.
For `C=CC(=O)Nc1cc(Nc2nccc(N3CC4(CCCC4)c4nc(C)ccc43)n2)c(OCC(F)(F)F)cc1N(C)CCN(C)C` [Example 40], the GI50 was 37 nM.
`C=CC(=O)Nc1cc(Nc2nccc(N3CC4(CN(C)C4)c4nc(C)ccc43)n2)c(OC)cc1N(C)CCN(C)C` [Example 73, N-(2-((2-(dimethylamino)ethyl) (methyl)amino)-5-((4-(1,5′-dimethyl-spiro[azetidine-3,3′-pyrrolo[3,2-b]pyridin]-1′(2′H)-yl)pyrimidin-2-yl)amino)-4-methoxyphenyl) acrylamide]: the GI50 is 811 nM.
With `C=CC(=O)Nc1cc(Nc2nccc(N3CC4(CCOCC4)c4nc(C)ccc43)n2)c(OC)cc1N(C)CCN(C)C` [Example 65], the GI50 came to 108 nM.
As for `C=CC(=O)Nc1cc(Nc2nccc(N3CC(C)(C)c4nc(C)c(C)cc43)n2)c(OC(C)C)cc1N(C)CCN(C)C` [Example 43, N-(2-((2-(dimethylamino)ethyl) (methyl)amino)-4-isopropoxy-5-((4-(3,3,5,6-tetramethyl-2,3-dihydro-1H-pyrrolo[3,2-b]pyridin-1-yl)pyrimidin-2-yl)amino)phenyl)acrylamide], the GI50 came out at 38.5 nM.
`C=CC(=O)Nc1cc(Nc2nccc(N3CC4(CCN(C)C4)c4nc(C)ccc43)n2)c(OC)cc1N(C)CCN(C)C` (stereo not shown) [Example 71, N-(2-((2-(dimethylamino)ethyl) (methyl)amino)-5-((4-(1,5′-dimethyl-spiro[pyrrolidin-3,3′-pyrrolo[3,2-b]pyridin]-1′(2′H)-yl)pyrimidin-2-yl)amino)-4-methoxyphenyl) acrylamide]: the GI50 was found to be 372 nM.
`C=CC(=O)Nc1cc(Nc2cc(N3CC(C)(C)c4nc(-c5cnn(C)c5)ccc43)ncn2)c(OC)cc1N(C)CCN(C)C` [Example 66, N-(5-((6-(3,3-dimethyl-5-(1-methyl-1H-pyrazol-4-yl)-2,3-dihydro-1H-pyrrolo[3,2-b]pyridin-1-yl)pyrimidin-4-yl)amino)-2-((2-(dimethylamino)ethyl)(methyl)amino)-4-methoxyphenyl)acrylamide]: the GI50 stood at 89.1 nM.
For `C=CC(=O)Nc1cc(Nc2nccc(N3CC4(CC(F)(F)C4)c4nc(C)ccc43)n2)c(OC)cc1N(C)CCN(C)C` [Example 74, N-(5-((4-(3,3-difluoro-5′-methyl-spiro[cyclobutane-1,3′-pyrrolo[3,2-b]pyridin]-1′(2′H)-yl)pyrimidin-2-yl)amino)-2-((2-(dimethylamino)ethyl)(methyl)amino)-4-methoxy-phenyl)acrylamide], the GI50 came to 83.6 nM.
